Measurements as given in US9187411B2, “Leukotriene B4 antagonist compound” (Eli Lilly and Company, priority 2012, dated 2015).

Target: T1, PPARα (Homo sapiens, UniProt Q07869)
T1 construct: made in house; host or cells: Sf9 insect cells (baculovirus), crude cell lysate
T1 sequence (Q07869 1-468): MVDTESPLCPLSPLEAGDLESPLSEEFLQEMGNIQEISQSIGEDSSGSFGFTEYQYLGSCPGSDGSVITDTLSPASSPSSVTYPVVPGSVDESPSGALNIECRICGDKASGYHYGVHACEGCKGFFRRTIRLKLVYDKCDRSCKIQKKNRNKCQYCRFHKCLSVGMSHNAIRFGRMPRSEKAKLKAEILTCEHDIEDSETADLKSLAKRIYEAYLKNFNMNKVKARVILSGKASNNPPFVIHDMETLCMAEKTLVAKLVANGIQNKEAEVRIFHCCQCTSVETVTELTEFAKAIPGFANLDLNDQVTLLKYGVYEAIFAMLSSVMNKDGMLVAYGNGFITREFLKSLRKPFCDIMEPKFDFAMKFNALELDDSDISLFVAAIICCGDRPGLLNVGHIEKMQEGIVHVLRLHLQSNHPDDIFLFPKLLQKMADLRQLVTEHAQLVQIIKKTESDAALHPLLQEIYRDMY
T1 sequence (P19793 1-462 partner): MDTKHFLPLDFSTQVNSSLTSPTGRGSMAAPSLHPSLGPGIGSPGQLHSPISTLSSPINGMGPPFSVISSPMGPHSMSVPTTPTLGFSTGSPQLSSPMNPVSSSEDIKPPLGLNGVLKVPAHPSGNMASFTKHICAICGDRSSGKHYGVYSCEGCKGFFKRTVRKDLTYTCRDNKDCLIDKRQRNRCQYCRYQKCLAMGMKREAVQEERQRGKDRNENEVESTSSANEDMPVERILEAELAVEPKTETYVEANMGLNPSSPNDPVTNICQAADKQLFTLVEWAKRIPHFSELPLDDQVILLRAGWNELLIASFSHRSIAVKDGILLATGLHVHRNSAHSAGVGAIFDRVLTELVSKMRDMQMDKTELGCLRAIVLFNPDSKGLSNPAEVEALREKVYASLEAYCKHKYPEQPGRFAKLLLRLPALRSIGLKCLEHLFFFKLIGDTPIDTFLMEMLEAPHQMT
Test: PPAR alpha binding assay (SPA)
Conditions: tritiated GW2331, n=3, read-out: Ki PPAR α binding
Source text: The nucleotide sequences encoding full-length PPARα receptor DNA (National Center for Biotechnology Information (NCBI) Reference Sequence NM_005036.4), PPARδ receptor DNA (NCBI Reference Sequence NM_006238.4), PPARγ receptor DNA (NCBI Reference Sequence NM_015869.4) and Retinoid X Receptor (RXR) α DNA (NCBI Reference Sequence NM_002957.4) are synthesized and inserted into pFastBacHTb (Invitrogen) vector in-framed with the N-terminal HIS tag from the vector. […] The protein concentration is determined by Bradford assay using BSA as the standard.
Binding Affinities of Compounds for the PPAR α, δ, γ Receptors are Assessed Using Scintillation Proximity Assay (SPA) Technology.
Biotinylated oligonucleotide(DR2) ^5′[…]^3′ (SEQ ID NO: 1) is used for binding of receptors to Yttrium silicate streptavidin-coated SPA beads (Perkin Elmer). The PPAR α, δ, γ and Retinoid X Receptor (RXR) α receptors (endogenously expressed as heterodimers) are cell lysates from Baculovirus expression systems in Sf9 cells. […] Non-specific binding is determined in the presence of 10000 nM unlabeled GW2331 (Kliewer, S. A. et al Proc. Natl. Acad. Sci. USA (1997), 94: 4318-4323) for the alpha and delta receptors and 2-methyl-2-[4-[3-[propyl[(5-pyridin-2-ylthiophen-2-yl)sulfonyl]amino]-propyl]phenoxy]propanoic (WO 2004/073606) for the gamma receptor. […]

CCCc1c(NC(=O)CC(C)(C)C(=O)[O-])cccc1OCCCOc1cc(O)c(-c2ccc(F)cc2)cc1CC.[Na+] [Example 2, Sodium 4-[[3-[3-[2-ethyl-4-(4-fluorophenyl)-5-hydroxy-phenoxy]propoxy]-2-propyl-phenyl]amino]-2,2-dimethyl-4-oxo-butanoate]
Ki: ~617 nM
